One data set deals with Staphylococcus aureus. Put plainly: Antimicrobial study against Staphylococcus aureus (gram-positive bacteria). The data set is classed as cell-based. The note with it: methylolated C8/10 10,800 ppm, methylolated lauric 11,400 ppm, DMDMH 3,000 ppm, others 14,700 ppm. As for the experimental part:
(§1) The antimicrobial properties of typical esters (I) and (Ia) were tested by minimum inhibitory concentration (MIC) tests, along with certain known substances, against […] strains of organisms: a mold, Aspergillus niger; a gram-positive bacteria, Staphylococcus aureus; and two gram-negative bacteria, Escherichia coli and Pseudomonas aeruginosa. […] These tests were used to determine any effect on biocidal activity of the varying chain length of the ester.
(§2) The known substances, on which identical tests were also performed, included the biocide, dimethyloldimethylhydantoin or DMDMH (iv), and a series of three surfactants, i.e., the three common emulsifiers, sodium lauryl sulfate (SLS); ethylene glycol distearate (EGDS), in the form of the commercial product PEGOSPERSE 50 DS (Lonza Inc.); and polyoxyethylene 20 sorbitan monoleate (POE 20 SMO), in the form of the commercial product GLYCOSPERSE 0 20 (Lonza Inc.).
(§3) The tests entailed contaminating a preexisting micro-colony with a known quantity (ppm, concentration) of test material. Each colony was then examined periodically over a one week period. […] A test was deemed non-efficacious when there was no decrease in colony size. In an effort to avoid any possible solvent effect, the micro-study was conducted in a totally aqueous solvent system without use of any other solvent.

A short description of data set [1]: Solubilities of esters in typical solvents / appearance of samples in water. As to conditions: 25° C. The data set is classed as physicochemical.
The next data set relates to Aspergillus niger. In words: Antimicrobial study against Aspergillus niger (mold). Format: cell-based. The note with it: methylolated C8/10 10,800 ppm, methylolated lauric 11,400 ppm, DMDMH 3,000 ppm, others 14,700 ppm. As for the experimental part:
as §1, §2, §3

A further data set is described as follows: Emulsion stability tests. The data set is classed as physicochemical. As for the experimental part:
Emulsion stability tests were performed on the esters (I), and for comparison on the precursor esters (Ia), to determine the extent to which each stabilized a standardized solution of water and an oil, using a common procedure consisting of homogenizing a mixture containing the test ester (2%), myristyl propionate (7%), and water (91%). While two emulsifiers are normally used to prepare a cosmetic formulation, e.g. one with a high HLB and the other with a low HLB, the test method herein using only one emulsifier, i.e. the test ester, is fully indicative of the emulsifying attributes of these esters.
The tests were performed with emulsions (500 g), prepared by combining the test ester (10.0 g), myristyl propionate (35 g), and distilled water (455 g) in a container and homogenizing the contents for one minute, via a Kika-Werk Ultra-Turrax S D-45 homogenizer. The emulsions were poured into a one pound flint jar, capped, and periodically examined over a 55 day period.

The next data set concerns Staphylococcus species a. Put plainly: Preservative challenge test against Staphylococcus species a. The data set is classed as cell-based. As to conditions: end of 14 day period. The procedure:
Microbiological challenge tests were also conducted with the lauric and oleic esters (I), representing molecules having C12 and C18 aliphatic fatty acid chain length moieties, respectively.
These preservative challenge tests were used to determine the biocidal performance of these two esters (I) in aqueous solution and dispersion formulations inoculated with a given one of two test organisms, previously isolated from a contaminated calcium carbonate (CaCO3) dispersion, i.e. gram-positive bacteria, designated Staphylococcus species a and Staphylococcus species b, as compared to three known biocides or preservatives, designated as DANTOGARD (trademark), Tektamer 38 (1,2-dibromo-2,4-dicyanobutane) and Nuodex PMA-18.
The solution formulation was represented by the inclusion of the test sample as preservative system in deionized water, and the dispersion formulation was represented by the inclusion of the test sample as preservative system in a CaCO3 aqueous dispersion (identified as Hydrocarb 60), the latter typifying a dispersed pigment medium, e.g. as used in a paint or other industrial dispersion or slurry. The antimicrobial activity of the test samples was evaluated at individually selective concentrations.
All these liquid samples were stored at room temperature until the start of the tests. The test organisms were maintained or nutrient agar at 4° C. and subcultured in nutrient broth (Difco), and a 24 hour culture incubated at 35° C. was used for the testing over a challenge test time period of 14 days.
The test formulations were prepared per a standardized procedure, by placing 20 ml aliquots of the stored sample into sterile test tubes, and then adding 0.1 ml of a standardized 10^6 suspension of a 24 hour culture in nutrient broth. Plate counts were taken immediately to determine the initial level of the microbial population, and the containers were incubated at 20°-25° C. Plate counts were retaken at 1, 3, 7 and 14 days, with the final reductions being calculated from the 14 days results.

Data set [2] in a line: HLB determination (weighted average method). The data set is classed as physicochemical. The text has this:
Hydrophilic-Lipophilic Balance or HLB is a means of associating the hydrophilic and lipophilic characteristics between two surfactants. A "weighted average" method was used to determine the HLB of the esters (I), and by comparison of the precursor ester (Ia), in which two emulsifiers of known HLB values along with the test ester were incorporated in a mixture of mineral oil and water. Evaluation and HLB determination of each of a series of prepared emulsion samples were effected by visual inspection.
The HLB of the mixture "m" is calculated from the sum of the HLB contributions of each surfactant, "a", "b", "c", per Equation 2 which describes a system of oil, water, and three surfactants.
Given that [HLB]m, [HLB]a, and [HLB]b, are known, and the ideal amount of "a", "b", and "c" to prepare a perfect emulsion has been determined, then by rearrangement of Eq. 2, the HLB of "c" can be calculated by Equation 3.
To obtain the HLB of the test ester as surfactant "c", a series of formulations was prepared in which the known surfactant sorbitan monostearate (SMS) as "a" and the known surfactant POE 20 sorbitan monostearate (POE 20 SMS) as "b" were varied in amount (wt. %) relative to each other at a constant amount (1 wt. %) of "c", until an optimum emulsion was obtained. Different combinations of "a" and "b" were used to vary the HLB of "c", for emulsifying a 40:56 (wt. %) mixture of paraffin oil and distilled water (totaling 96 wt. %).
To prepare the emulsions, surfactants "a", "b", and "c", and the paraffin oil were combined in a 150 ml beaker and heated slowly with agitation to 70°-80° C. The value of "X" in each formulation was predetermined by rearranging Eq. 3 to solve for X, and then inserting into the equation various [HLB]c values for the test ester (i.e., 2, 3, 4, 5, 6 . . . ). The [HLB]c values chosen reflected a range that would likely contain the actual HLB of the test ester. Hot distilled water (70°-80° C.) was then slowly added with agitation. The total weight of all these reagents was 100 grams. The resulting emulsion was allowed to cool, with continued agitation, until the temperature dropped below 30° C.
A series of emulsions for each test was prepared, one at a time, and then examined as a set. Each sample within the series was evaluated and graded according to the quality of the emulsion by visual examination of droplet size.

This note sets out measurements from patent US5100907A, “Hydantoin esters” (Lonza, Inc., priority 1990, dated 1992).

Structures are written as SMILES.

With `CCCCCCCC/C=C\CCCCCCCC(=O)OCCN1C(=O)N(CO)C(=O)C1(C)C` [Methylolated Oleic Ester, 2-(3-hydroxymethyl-5,5-dimethyl-1,3-diazacyclopentane-2,4-dion-1-yl)-ethylester of oleic acid], the “Colony Count” value in the data set on Staphylococcus aureus (Day 0) is “TNC”; in the data set with Staphylococcus aureus (Day 1), 4,200 × 1,000; in the data set with Staphylococcus aureus (Day 2), < 0.01 × 1,000; in the data set on Staphylococcus aureus (Day 3), < 0.01 × 1,000; with Staphylococcus aureus (Day 7), < 0.01 × 1,000; in the data set with Aspergillus niger (Day 0) it was 2,000 × 1,000. In addition, the “Colony Count” value was 0.5 × 1,000 in the data set with Aspergillus niger (Day 1), < 0.01 × 1,000 with Aspergillus niger (Day 2), < 0.01 × 1,000 with Aspergillus niger (Day 3) and < 0.01 × 1,000 with Aspergillus niger (Day 7). Besides, in data set [1], the “Solubility in isopropyl alcohol” value is “S (>10 g/100 g Solvent)”. Also, the “Solubility in mineral oil” value in data set [1] is given as “S (>10 g/100 g Solvent)”. In addition, the “emulsion quality, decreasing order of rank” value in the data set “Emulsion stability tests” is recorded as “cocoate, laurate>oleate,isostearate>stearate>C8/10 ester>acetate”. The effectiveness as preservative result in the data set with Staphylococcus species a (calcium carbonate aqueous dispersions) was “effective as a preservative in calcium carbonate aqueous dispersions”; in the data set on Staphylococcus species a (water), “effective as preservatives in water”. The “Average HLB” value in data set [2] worked out at 15.0. Further, in data set [2], the “HLB Range” value is recorded as 14-16.

`CCCCCCCCCCCC(=O)OCCN1C(=O)N(CO)C(=O)C1(C)C` [Methylolated Lauric Ester, 2-(3-hydroxymethyl-5,5-dimethyl-1,3-diazacyclopentane-2,4-dion-1-yl)-ethylester of lauric acid]: the “Colony Count” value is “TNC” in the data set on Staphylococcus aureus (Day 0); 4,000 × 1,000 in the data set on Staphylococcus aureus (Day 1); < 0.01 × 1,000 in the data set on Staphylococcus aureus (Day 2); < 0.01 × 1,000 with Staphylococcus aureus (Day 3); < 0.01 × 1,000 in the data set on Staphylococcus aureus (Day 7); 400 × 1,000 with Aspergillus niger (Day 0). In addition, the “Colony Count” value is 2 × 1,000 with Aspergillus niger (Day 1), < 0.01 × 1,000 in the data set with Aspergillus niger (Day 2), < 0.01 × 1,000 with Aspergillus niger (Day 3) and < 0.01 × 1,000 in the data set on Aspergillus niger (Day 7). In data set [1], the “Solubility in isopropyl alcohol” value is recorded as “S (>10 g/100 g Solvent)”. Moreover, the “Solubility in mineral oil” value in data set [1] is “S (>10 g/100 g Solvent)”. For the same compound, the “ability to stabilize emulsions” value in “Emulsion stability tests” is listed as “the best emulsifiers tested”. For the same compound, the “duration of stabilized emulsions” value in “Emulsion stability tests” is given as “more than 22 days”. Also, in “Emulsion stability tests”, the “emulsion quality, decreasing order of rank” value is on record as “cocoate, laurate>oleate,isostearate>stearate>C8/10 ester>acetate”. Further, the effectiveness as preservative entry in the data set with Staphylococcus species a (water) is on record as “effective as preservatives in water”. Moreover, the “Average HLB” value in data set [2] is given as 12.8. Moreover, the “HLB Range” value in data set [2] is reported as 12-14.
